Data taken from US4485117A, “Antiprotozoal compounds” (priority 1981, dated 1984).
In brackets after ≈: the same amount, converted by molar mass. Like-named read-outs stand apart in the source and are kept apart here. Each block holds one compound with its values, some of them ahead of it.

Columns and labels:
[1] = system: Plasmodium falciparum; assay: Inhibitory effect on Plasmodium falciparum in culture (G-3H-hypoxanthine uptake); format: cell-based; conditions: for IC50: P. falciparum culture, 36 hours, read-out: ED50 (the source's name)
Protocol: Compounds of the following formula, including compounds of formula (I), were examined for their inhibitory effect on Plasmodium falciparum. [drawing 11]
The test method was a modification of that described by Desjardins et al., Antimicrob. Agents and Chemotherapy,1979,16,710-718. Compounds were dissolved in ethanol at a concentration of 1000 mg/L and dilutions down to 1 mg/L were made. The drug solutions were serially diluted using RPMI 1640 medium+10% human plasma in microtitration plates. Parasitised and fresh red blood cells were added together with G^3 H-hypoxanthine, in RPMI 1640 medium+10% human plasma and the cultures incubated for 36 hours. Cultures were then harvested, the particulate contents collected on a glass-fibre filter paper and washed copiously with water. The filter papers were dried and the radioactivity measured using a scintillation counter. Infected untreated and uninfected untreated cultures were included as controls. Percent inhibition was correlated with dose to provide an ED50.

[2] = system: malaria; conditions: background art; cited from earlier work
[3] = system: E. tenella; assay: In vitro activity against E. tenella in cell cultures; format: cell-based; conditions: Eimeria tenella, 96 hours, read-out: MIC (minimum inhibitory concentration)
Protocol: Compounds tested in Example 5 were assessed for their activity against E. tenella. In the method employed cell cultures were infected with sporozoite suspensions of E. tenella immediately after addition of the compounds. […] After incubation for 96 hours the cultures were fixed and the cells were stained with 0.1% toluidine blue. The stained cultures were examined microscopically for presence of parasites.

[4] = system: Eimeria tenella; assay: In vivo anticoccidiosis screen in chicks, E. tenella; design: species or system Eimeria tenella; male Ross Ranger chicks; conditions: 6 days, fifth day of infection, groups of 5
Protocol: (§1) Compounds tested in Example 7(a) were examined in an in vivo anticoccidiosis screen.
(§2) The compounds were administered to groups of 5 male Ross Ranger chicks (7 days old), at various dosages in the diet, for 6 days. The chicks were each infected with Eimeria tenella and E. acervulina one day after the beginning of the medication. The number of birds cleared of E. tenella lesions was noted on the fifth day of infection as was the presence or absence of E. acervulina oocysts in the droppings. The results are shown in Table 3, in which the numbers refer to the number of birds cleared of E. tenella and the letters indicate the presence or absence of E. acervulina /A=absent; P=present; M=95% clearance in comparision with untreated controls/.

[5] = system: E. acervulina; assay: In vivo anticoccidiosis screen in chicks, E. acervulina; design: species or system Eimeria acervulina; male Ross Ranger chicks; key: A: absent; P: present; M: 95% clearance in comparision with untreated controls; conditions: 6 days, fifth day of infection
Protocol: as §1, §2

[6] = in vivo; conditions: rat, rats, oral, read-out: acute oral LD50
Protocol: The acute oral LD50 's of compounds of formula (I) in rats were determined by standard techniques.

[7] = biological target: cyclo oxygenase; assay: Enzyme assay, inhibition of cyclo oxygenase; format: biochemical, rabbit; conditions: in vitro
[8] = biological target: lipoxygenase; assay: Enzyme assay, inhibition of lipoxygenase; format: biochemical, rabbit; conditions: in vitro
[9] = system: rat eye; assay: Anti-inflammatory activity in the rat eye (bacterial endotoxin induced); format: in vivo; conditions: assessed at 24 and 48 hours
Protocol: The anti-inflammatory activity in the rat eye was determined, following both oral and topical administration, of 2-(4-t-butylcyclohexyl)-3-hydroxy-1,4-naphthoquinone. The inflammatory response for the test employed developed following injection of gram-negative bacterial endotoxin into the rat foodpad (Rosenbaum et. al Nature 286, 611-613 (1980)).
Vasodilation was assessed at 24 and 48 hours using a slit lamp, the rats then killed and the aqueous humour aspirated for determination of protein concentrations and total leucocyte numbers. The results are shown below as ED50.

Compound: O=C1C(O)=C(CCCCCCCCC2CCCCC2)C(=O)c2ccccc21 [Menoctone, 2-(8-cyclohexyloctyl)-3-hydroxy-1,4-naphthoquinone, reference compound]
ED50 ([1]; 36 h): 2.55×10^-7
activity in man (in words) [2]: poor activity in man

Compound: CC(C)(C)C1CCC(C2=C(O)C(=O)c3ccccc3C2=O)CC1 (stereo not drawn) [4'-t-Butyl (80% trans), 2-(4'-t-butylcyclohexyl)-3-hydroxy-1,4-naphthoquinone]
IC50 ([1]; 2160 min): 0.0375 nM
MIC [3]: 0.01 µM (≈ 0.00312 µg/mL)
number of birds cleared of E. tenella lesions ([4]; 50 ppm in diet): 0/5
number of birds cleared of E. tenella lesions ([4]; 100 ppm in diet): 5/5
presence or absence of E. acervulina oocysts in the droppings ([5]; 50 ppm in diet): P
presence or absence of E. acervulina oocysts in the droppings ([5]; 100 ppm in diet): A

Compound: CC(C)(C)C1CCC(C2=C(O)C(=O)c3ccccc3C2=O)CC1 (stereo not shown) [2-(4'-t-butylcyclohexyl)-3-hydroxy-1,4-naphthoquinone]
LD50 [6]: > 1000 mg/kg
IC50 [7]: 58000 nM
IC50 [8]: 23000 nM
ED50 ([9]; Rattus norvegicus, oral): 5 to 25 mg/kg
ED50, anti-inflammatory activity in the rat eye ([9]; topical): 10-20 ug/eye

Compound: CCC(C)(C)C1CCC(C2=C(O)C(=O)c3ccccc3C2=O)CC1 (stereo not shown) [2-hydroxy-3-(4'-t-pentylcyclohexyl)-1,4-naphthoquinone]
IC50 [7]: 63000 nM
IC50 [8]: 29000 nM

Compound: CC(C)(C)C1CCC(C2=C(O)C(=O)c3ccccc3C2=O)CC1 (stereo not drawn) [4'-t-Butyl (50% trans), 2-(4'-t-butylcyclohexyl)-3-hydroxy-1,4-naphthoquinone]
IC50 ([1]; 2160 min): 0.599 nM

IC50 ([1]; Plasmodium falciparum, 36 h): 300 nM
MIC [3]: 4 µM (≈ 1.25 µg/mL)
Compound: CC(C)(C)C1CCCC(C2=C(O)C(=O)c3ccccc3C2=O)C1 (stereo not drawn) [3'-t-Butyl (80% trans), reference compound]

Compound: CCC(C)(C)C1CCC(C2=C(O)C(=O)c3ccccc3C2=O)CC1 (stereo not drawn) [4'-t-Pentyl (50% trans), 2-hydroxy-3-(4'-t-pentylcyclohexyl)-1,4-naphthoquinone]
MIC [3]: 0.0096 µM (≈ 0.00313 µg/mL)

IC50 ([1]; Plasmodium falciparum, 36 h): 9.2 nM
MIC [3]: 0.46 µM (≈ 0.124 µg/mL)
Compound: C[C@H]1CC[C@H](C2=C(O)C(=O)c3ccccc3C2=O)CC1 [4'-Methyl (100% trans), reference compound]

Compound: CCC(C)(C)C1CCC(C2=C(O)C(=O)c3ccccc3C2=O)CC1 (stereo not drawn) [4'-t-Pentyl (60% trans), 2-hydroxy-3-(4'-t-pentylcyclohexyl)1,4-naphthoquinone]
IC50 ([1]; Plasmodium falciparum, 36 h): 0.06 nM
number of birds cleared of E. tenella lesions ([4]; 50 ppm in diet): 4/5
number of birds cleared of E. tenella lesions ([4]; 100 ppm in diet): 5/5
number of birds cleared of E. tenella lesions ([4]; 200 ppm in diet): 5/5
presence or absence of E. acervulina oocysts in the droppings ([5]; 50 ppm in diet): M (95% clearance in comparision with untreated controls)
presence or absence of E. acervulina oocysts in the droppings ([5]; 100 ppm in diet): A
presence or absence of E. acervulina oocysts in the droppings ([5]; 200 ppm in diet): A

IC50 ([1]; Plasmodium falciparum, 36 h): 1.08 nM
MIC [3]: 0.025 µM (≈ 0.00781 µg/mL)
Compound: CC(C)(C)[C@H]1CC[C@@H](C2=C(O)C(=O)c3ccccc3C2=O)CC1 [4'-t-Butyl (100% cis), 2-(cis-4'-t-butylcyclohexyl)-3-hydroxy-1,4-naphthoquinone]

Compound: CC(C)(C)C1CCC(C2=C(O)C(=O)c3ccccc3C2=O)CC1 (stereo not drawn) [4'-t-Butyl (75% trans), 2-(4'-t-butylcyclohexyl)-3-hydroxy-1,4-naphthoquinone]
IC50 ([1]; 2160 min): 0.0563 nM

IC50 ([1]; Plasmodium falciparum, 36 h): 4.05 nM
MIC [3]: 0.092 µM (≈ 0.0311 µg/mL)
Compound: O=C1C(O)=C([C@H]2CC[C@H](C3CCCCC3)CC2)C(=O)c2ccccc21 [4'-Cyclohexyl (100% trans), reference compound]
number of birds cleared of E. tenella lesions ([4]; 50 ppm in diet): 1/5
number of birds cleared of E. tenella lesions ([4]; 100 ppm in diet): 5/5
number of birds cleared of E. tenella lesions ([4]; 200 ppm in diet): 5/5
presence or absence of E. acervulina oocysts in the droppings ([5]; 50 ppm in diet): P
presence or absence of E. acervulina oocysts in the droppings ([5]; 100 ppm in diet): P
presence or absence of E. acervulina oocysts in the droppings ([5]; 200 ppm in diet): A

IC50 ([1]; Plasmodium falciparum, 36 h): 0.0571 nM
Compound: CC(C)(C)[C@H]1CC[C@H](C2=C(O)C(=O)c3ccccc3C2=O)CC1 [4'-t-Butyl (100% trans), 2-(trans-4'-t-butylcyclohexyl)-3-hydroxy-1,4-naphthoquinone]
